Test results as given in ChEMBL document CHEMBL3885881, “DrugMatrix”.

Species on record: Rattus norvegicus
Format: toxicity, organism-based, Sprague-Dawley
Conditions: in vivo, 24 h, time 1 day, vehicle 100 % SALINE; for ABSOLUTE BASOPHIL / ABSOLUTE EOSINOPHIL / ABSOLUTE LYMPHOCYTE / ABSOLUTE MONOCYTE / BASOPHIL / EOSINOPHIL / ERYTHROCYTE COUNT / HEMATOCRIT / HEMOGLOBIN / LEUKOCYTE COUNT / LYMPHOCYTE / MEAN CORPUSCULAR HEMOGLOBIN / MEAN CORPUSCULAR HEMOGLOBIN CONCENTRATION / MEAN CORPUSCULAR VOLUME / MONOCYTE / NEUTROPHIL / PLATELET COUNT / ABSOLUTE SEGMENTED NEUTROPHIL / NUCLEATED RED BLOOD CELLS: tissue Blood; for ALANINE AMINOTRANSFERASE / ALBUMIN / ALKALINE PHOSPHATASE / ASPARTATE AMINOTRANSFERASE / BLOOD UREA NITROGEN / CARBON DIOXIDE / CHLORIDE / CHOLESTEROL / CREATINE PHOSPHOKINASE / CREATININE / GLUCOSE / LACTATE DEHYDROGENASE / LIPASE / PHOSPHORUS / POTASSIUM / SODIUM / TOTAL BILIRUBIN / TOTAL PROTEIN / URIC ACID: tissue Plasma
[1] = po, 0 mg/kg, vehicle control, route oral GAVAGE, dose level Control
[2] = po, […], route oral GAVAGE, dose 7.5 mg/Kg, dose level High
[3] = ip, 0 mg/kg, vehicle control, route intraperitoneal, dose level Control
[4] = ip, 1 mg/kg, route intraperitoneal, dose level High

Description: DrugMatrix - Regimen: Single

Nc1ncnc2c1ncn2[C@@H]1O[C@H](CO)[C@@H](O)[C@H]1F [2'-BETA-FLUORO-2',3'-DEOXYADENOSINE]
ABSOLUTE BASOPHIL [1]: 73.3 cells/µL | ABSOLUTE EOSINOPHIL [1]: 86.7 cells/µL | ABSOLUTE LYMPHOCYTE [1]: 8400 cells/µL | ABSOLUTE MONOCYTE [1]: 350 cells/µL | BASOPHIL [1]: 0.63% | EOSINOPHIL [1]: 0.73% | ERYTHROCYTE COUNT [1]: 6.55 x10E6/uL | HEMATOCRIT [1]: 42.83% | HEMOGLOBIN [1]: 13.6 G/DL | LEUKOCYTE COUNT [1]: 11.33 x10E3/uL | LYMPHOCYTE [1]: 74.77% | MEAN CORPUSCULAR HEMOGLOBIN [1]: 20.77 pg | MEAN CORPUSCULAR HEMOGLOBIN CONCENTRATION [1]: 31.7 G/DL | MEAN CORPUSCULAR VOLUME [1]: 65.53 fL | MONOCYTE [1]: 3% | NEUTROPHIL [1]: 20.2% | PLATELET COUNT [1]: 1394.33 x10E3/uL | ALANINE AMINOTRANSFERASE [1]: 34 u/L | ALBUMIN [1]: 4.03 G/DL | ALKALINE PHOSPHATASE [1]: 345.33 u/L | ASPARTATE AMINOTRANSFERASE [1]: 69.67 u/L | BLOOD UREA NITROGEN [1]: 14.33 mg/dL | CARBON DIOXIDE [1]: 46 mmol/L | CHLORIDE [1]: 102.67 MEQ/L | CHOLESTEROL [1]: 85 mg/dL | CREATINE PHOSPHOKINASE [1]: 292 u/L | CREATININE [1]: 0.2 mg/dL | GLUCOSE [1]: 168 mg/dL | LACTATE DEHYDROGENASE [1]: 114.33 u/L | LIPASE [1]: 13 u/L | PHOSPHORUS [1]: 11.2 mg/dL | POTASSIUM [1]: 7.07 MEQ/L | SODIUM [1]: 144.67 MEQ/L | TOTAL BILIRUBIN [1]: 0.27 mg/dL | TOTAL PROTEIN [1]: 6.57 G/DL | URIC ACID [1]: 0.73 mg/dL | ABSOLUTE BASOPHIL [2]: 36.7 cells/µL | ABSOLUTE EOSINOPHIL [2]: 40 cells/µL | ABSOLUTE LYMPHOCYTE [2]: 7660 cells/µL | ABSOLUTE MONOCYTE [2]: 240 cells/µL | BASOPHIL [2]: 0.37% | EOSINOPHIL [2]: 0.43% | ERYTHROCYTE COUNT [2]: 7.06 x10E6/uL | HEMATOCRIT [2]: 46.1% | HEMOGLOBIN [2]: 14.4 G/DL | LEUKOCYTE COUNT [2]: 9.56 x10E3/uL | LYMPHOCYTE [2]: 79.8% | MEAN CORPUSCULAR HEMOGLOBIN [2]: 20.4 pg | MEAN CORPUSCULAR HEMOGLOBIN CONCENTRATION [2]: 31.2 G/DL | MEAN CORPUSCULAR VOLUME [2]: 65.37 fL | MONOCYTE [2]: 2.57% | NEUTROPHIL [2]: 16.23% | PLATELET COUNT [2]: 1451.67 x10E3/uL | ALANINE AMINOTRANSFERASE [2]: 40.67 u/L | ALBUMIN [2]: 4.03 G/DL | ALKALINE PHOSPHATASE [2]: 348 u/L | ASPARTATE AMINOTRANSFERASE [2]: 71.67 u/L | BLOOD UREA NITROGEN [2]: 15 mg/dL | CARBON DIOXIDE [2]: 42.67 mmol/L | CHLORIDE [2]: 103.33 MEQ/L | CHOLESTEROL [2]: 98.67 mg/dL | CREATINE PHOSPHOKINASE [2]: 439.67 u/L | CREATININE [2]: 0.3 mg/dL | GLUCOSE [2]: 185.67 mg/dL | LACTATE DEHYDROGENASE [2]: 90 u/L | LIPASE [2]: 12 u/L | PHOSPHORUS [2]: 11.67 mg/dL | POTASSIUM [2]: 6.3 MEQ/L | SODIUM [2]: 146 MEQ/L | TOTAL BILIRUBIN [2]: 0.27 mg/dL | TOTAL PROTEIN [2]: 6.7 G/DL | URIC ACID [2]: 0.97 mg/dL

CC[C@H]1CN2CCc3cc(OC)c(OC)cc3[C@@H]2C[C@@H]1C[C@H]1NCCc2cc(OC)c(OC)cc21 [EMETINE]
ABSOLUTE EOSINOPHIL [3]: 77.5 CELLS/uL | ABSOLUTE LYMPHOCYTE [3]: 12568.83 CELLS/uL | ABSOLUTE MONOCYTE [3]: 704.67 CELLS/uL | ABSOLUTE SEGMENTED NEUTROPHIL [3]: 2365.67 CELLS/uL | BASOPHIL [3]: 0% | EOSINOPHIL [3]: 0.5% | ERYTHROCYTE COUNT [3]: 5.83 x10E6/uL | HEMATOCRIT [3]: 36.08% | HEMOGLOBIN [3]: 13.22 G/DL | LEUKOCYTE COUNT [3]: 15.72 x10E3/uL | LYMPHOCYTE [3]: 80% | MEAN CORPUSCULAR HEMOGLOBIN [3]: 22.68 pg | MEAN CORPUSCULAR HEMOGLOBIN CONCENTRATION [3]: 36.63 G/DL | MEAN CORPUSCULAR VOLUME [3]: 61.88 fL | MONOCYTE [3]: 4.5% | NEUTROPHIL [3]: 15% | NUCLEATED RED BLOOD CELLS [3]: 0 /100WBC | PLATELET COUNT [3]: 1020.5 x10E3/uL | ALANINE AMINOTRANSFERASE [3]: 43.33 u/L | ALKALINE PHOSPHATASE [3]: 368 u/L | ASPARTATE AMINOTRANSFERASE [3]: 93 u/L | BLOOD UREA NITROGEN [3]: 12.33 mg/dL | CARBON DIOXIDE [3]: 27.17 mmol/L | CHLORIDE [3]: 99.5 MEQ/L | CHOLESTEROL [3]: 65.67 mg/dL | CREATININE [3]: 0.23 mg/dL | GLUCOSE [3]: 181.67 mg/dL | LACTATE DEHYDROGENASE [3]: 380.17 u/L | LIPASE [3]: 9.33 u/L | PHOSPHORUS [3]: 13.1 mg/dL | POTASSIUM [3]: 6.28 MEQ/L | SODIUM [3]: 143.03 MEQ/L | TOTAL BILIRUBIN [3]: 0.18 mg/dL | TOTAL PROTEIN [3]: 6.12 G/DL | URIC ACID [3]: 2.47 mg/dL | ABSOLUTE EOSINOPHIL [4]: 92 CELLS/uL | ABSOLUTE LYMPHOCYTE [4]: 11430 CELLS/uL | ABSOLUTE MONOCYTE [4]: 510 CELLS/uL | ABSOLUTE SEGMENTED NEUTROPHIL [4]: 1901.33 CELLS/uL | BASOPHIL [4]: 0% | EOSINOPHIL [4]: 0.67% | ERYTHROCYTE COUNT [4]: 5.8 x10E6/uL | HEMATOCRIT [4]: 35.23% | HEMOGLOBIN [4]: 12.63 G/DL | LEUKOCYTE COUNT [4]: 13.93 x10E3/uL | LYMPHOCYTE [4]: 82% | MEAN CORPUSCULAR HEMOGLOBIN [4]: 21.77 pg | MEAN CORPUSCULAR HEMOGLOBIN CONCENTRATION [4]: 35.87 G/DL | MEAN CORPUSCULAR VOLUME [4]: 60.83 fL | MONOCYTE [4]: 3.67% | NEUTROPHIL [4]: 13.67% | NUCLEATED RED BLOOD CELLS [4]: 0 /100WBC | PLATELET COUNT [4]: 1110.67 x10E3/uL | ALANINE AMINOTRANSFERASE [4]: 45.67 u/L | ALKALINE PHOSPHATASE [4]: 344 u/L | ASPARTATE AMINOTRANSFERASE [4]: 124 u/L | BLOOD UREA NITROGEN [4]: 13.33 mg/dL | CARBON DIOXIDE [4]: 27 mmol/L | CHLORIDE [4]: 100 MEQ/L | CHOLESTEROL [4]: 66.67 mg/dL | CREATININE [4]: 0.22 mg/dL | GLUCOSE [4]: 182 mg/dL | LACTATE DEHYDROGENASE [4]: 467.33 u/L | LIPASE [4]: 9.33 u/L | PHOSPHORUS [4]: 14.17 mg/dL | POTASSIUM [4]: 6.56 MEQ/L | SODIUM [4]: 143.9 MEQ/L | TOTAL BILIRUBIN [4]: 0.17 mg/dL | TOTAL PROTEIN [4]: 6.07 G/DL | URIC ACID [4]: 2.17 mg/dL
